Test results from publication PMC2699469 (PLoS Pathogens, 2009).
Peptide text beside a SMILES is read from it. * marks the point of attachment. Palmitoyl = CCCCCCCCCCCCCCCC(=O)*

These compounds were tested on HIV-1 ENV-mediated fusion of Jurkat HXBc2 (effector) with Jurkat E6-1 (target) cells (assay: Cell-cell fusion inhibition assay (DiI/DiD lipophilic probes, flow cytometry)). Details: Jurkat E6-1 + Jurkat HXBc2 1:1, co-incubated 6 h, eight peptide concentrations, FACS, Hill-type fit; at least four independent experiments, ± standard deviation.
Type: cell-based
Protocol: The protocol utilizing Jurkat E6-1 and Jurkat HXBc2 cells for a cell-cell fusion assay was previously described. In short, Jurkat E6-1 and Jurkat HXBc2 cells were labeled with DiI and DiD lipophilic fluorescent probes, respectively. The two cell populations were co-incubated, in a ratio of 1∶1, for 6 h in the presence of eight different concentrations of the inhibitory peptides. Prior to measurements the cells were washed, spinned, dissolved in PBS, and put on ice. Cells co-incubated without the presence of peptides served as an optimal fusion reference. Unlabeled cells that were handled similarly served as an intrinsic fluorescence control. Cells labeled separately with DiI or DiD were used to adjust the optimal separation of fluorescent signals. Jurkat HXBc2 cells labeled with DiI were co-incubated with Jurkat HXBc2 cells labeled with DiD for a fusion background that was subtracted from the measurements of the experiment. The following alterations were applied to the original protocol: (i) 5 µL of a 1 mg/mL DiI or DiD solution in dimethylsulfoxide (DMSO) was added to 1 mL of 4×10^6 cells/mL Jurkat E6-1 or Jurkat HXBc2 cells, respectively. (ii) For each data point 150,000 events were collected. Measurements were performed on a FACSort machine, upgraded to a FACSCalibur cell analyzer (Becton Dickinson). […] For the fitting, we uploaded the X and Y values of the raw data (after subtracting the background) into a nonlinear least squares regression (curve fitter) program that provided the IC50 value (A of the equation), as well as the c value.

Compound | IC50 [nM]
CCCCCCCCCCCCCCCC(=O)NCCCC[C@H](NC(=O)[C@H](CC(C)C)NC(=O)[C@@H](NC(=O)[C@H](CCCNC(=N)N)NC(=O)[C@H](C)NC(=O)[C@H](CC(C)C)NC(=O)[C@H](CC(C)C)NC(=O)[C@H](CCC(N)=O)NC(=O)[C@H](CCCCN)NC(=O)[C@@H](NC(=O)[C@H](CCCCN)NC(=O)[C@H](Cc1c[nH]c2ccccc12)NC(=O)[C@H](CCC(N)=O)NC(=O)[C@@H](NC(=O)[C@H](CC(C)C)NC(=O)[C@H](CCC(N)=O)NC(=O)[C@H](CC(C)C)NC(=O)[C@H](CCC(=O)O)NC(=O)[C@H](Cc1c[nH]cn1)NC(=O)[C@@H](NC(=O)[C@H](CCC(N)=O)NC(=O)[C@H](C)NC(=O)[C@H](CCC(=O)O)NC(=O)[C@@H](NC(=O)[C@H](CC(C)C)NC(=O)[C@H](CCCNC(=N)N)NC(=O)[C@@H](NC(=O)[C@H](CC(C)C)NC(=O)[C@H](CC(N)=O)NC(=O)[C@H](CC(N)=O)NC(=O)[C@H](CCC(N)=O)NC(=O)[C@H](CCC(=O)O)NC(=O)[C@H](CCC(N)=O)NC(=O)[C@H](CC(=O)O)NC(=O)[C@@H](NC(=O)CNC(=O)[C@@H](N)CO)[C@@H](C)CC)[C@@H](C)O)[C@@H](C)CC)[C@@H](C)CC)[C@@H](C)O)[C@@H](C)CC)[C@@H](C)CC)C(N)=O [N36 MUTe,g-C16] (H-SGIDQEQNNLTRLIEAQIHELQLTQWKIKQLLARILK(Palmitoyl)-NH2) | 8.8 ± 4
CCCCCCCCCCCCCCCC(=O)N[C@@H](CO)C(=O)NCC(=O)N[C@H](C(=O)N[C@@H](CC(=O)O)C(=O)N[C@@H](CCC(N)=O)C(=O)N[C@@H](CCC(=O)O)C(=O)N[C@@H](CCC(N)=O)C(=O)N[C@@H](CC(N)=O)C(=O)N[C@@H](CC(N)=O)C(=O)N[C@@H](CC(C)C)C(=O)N[C@H](C(=O)N[C@@H](CCCNC(=N)N)C(=O)N[C@@H](CC(C)C)C(=O)N[C@H](C(=O)N[C@@H](CCC(=O)O)C(=O)N[C@@H](C)C(=O)N[C@@H](CCC(N)=O)C(=O)N[C@H](C(=O)N[C@@H](Cc1c[nH]cn1)C(=O)N[C@@H](CCC(=O)O)C(=O)N[C@@H](CC(C)C)C(=O)N[C@@H](CCC(N)=O)C(=O)N[C@@H](CC(C)C)C(=O)N[C@H](C(=O)N[C@@H](CCC(N)=O)C(=O)N[C@@H](Cc1c[nH]c2ccccc12)C(=O)N[C@@H](CCCCN)C(=O)N[C@H](C(=O)N[C@@H](CCCCN)C(=O)N[C@@H](CCC(N)=O)C(=O)N[C@@H](CC(C)C)C(=O)N[C@@H](CC(C)C)C(=O)N[C@@H](C)C(=O)N[C@@H](CCCNC(=N)N)C(=O)N[C@H](C(=O)N[C@@H](CC(C)C)C(=O)N[C@@H](CCCCN)C(N)=O)[C@@H](C)CC)[C@@H](C)CC)[C@@H](C)O)[C@@H](C)CC)[C@@H](C)CC)[C@@H](C)O)[C@@H](C)CC [C16-N36 MUTe,g] (Palmitoyl-SGIDQEQNNLTRLIEAQIHELQLTQWKIKQLLARILK-NH2) | 162 ± 4
H-SGIDQEQNNLTRLIEAQIHELQLTQWKIKQLLARILK-NH2 [N36 MUTe,g, reference compound] | 936 ± 36
